Data on 2 compounds can be found in US20220401574A1, “CARDIOPROTECTIVE MICROBUBBLE-LIPOSOMAL DRUG COMPLEXES” (UNIVERSITY OF PITTSBURGH - OF THE COMMONWEALTH SYSTEM OF …, priority 2019, published 2022).

Series [1] can be described thus: Biodistribution assessment with Cy5.5 as Dox analog. It is filed as in vivo, mice. The following applies: organs harvested 3.5 hours after treatment, imaging. The text has this: To assess bio-distribution of the drug post ultrasound treatment, Cy5.5 was used as a fluorescent Dox analog, injected i.v. as: Cy5.5-NH2, liposomal Cy5.5, liposomal Cy5.5+MB, Cy5.5LPX, and mice were euthanized 3.5 hrs later. Blood, tumor, spleen, kidney, liver, heart, lung, brain, skin on the back, muscle, femur (bone), and foot were imaged post-mortem and measured using a Xenogen IVIS 200 imaging system.
This example determines the fate of liposomal lipids and Dox after in vivo delivery. […]
To further quantify the distribution of Cy5.5-NH2, tumor, spleen, kidney, liver, heart, and lung were wet-weighed and […] of each tissue specimen were homogenized in 200 μL lysis buffer (50 mM HEPES, 50 mM NaCl, 1% Triton X-100, 5 mM EDTA, and 15 mM DTT) using a sonicator homogenizer (Sonicator Ultrasonic Processor XL, Misonix, Farmingdale, N.Y.) in Eppendorf tubes immersed in an ice-water. […]
50 μL supernatant of each specimen was added in black 384 well plates. Cy5.5-NH2 fluorescence intensity of 3 parallel samples of each organ was determined at Ex/Em 680/710 nm using a plate reader (Infinite 200 PRO, Tecan, Männedorf, Switzerland). […]

The conditions of series [2]: cited from earlier work.
For series [3], the system named is MCA 205 murine sarcoma cells. Description: Acute cell viability, trypan blue exclusion assay. It is filed as cell-based. The following applies: 8 μg/mL, without US. Here is the method:
(§1) MCA 205 murine sarcoma cells (generously provided by Dr. Walter J. Storkus at the University of Pittsburgh School of Medicine) were cultured in RPMI-1640 (Lonza, Biowhittaker, Basel, Switzerland), supplemented with 10% heat deactivated fetal bovine serum (FBS) and 1% penicillin-streptomycin at 37° C., and sub-cultured every 2 days and used before 8 passage.
MCA 205 cells were suspended (5×10^4 cells in 500 μL media) in capped sterile polystyrene tubes. One of the following formulations was added to the tubes: DoxLPX, LDox, free Dox, ELPX, LDox+MB (e.g, unconjugated LDox and MB). […] Cell viability was evaluated 30 min later using the trypan blue exclusion assay where controls comprised identical tubes not exposed to US.
Live cells and total cell number were counted on a hemocytometer using an inverted microscope (Motic AE21, Scientific Instrument Company, Campbell, Calif.). Acute cell viability was quantified as the number of the live cells (trypan blue negative) divided by the total cell numbers. Each treatment condition was repeated independently three times.

Series [4] has as its system MCA 205 murine sarcoma cells. Description: Long-term cell viability, alamaBlue assay. Format: cell-based. The following applies: without US, 24, 48, 72 h. How it is done: as §1
Control conditions included cells mixed with free Dox, LDox, DoxLPX, ELPX without US treatment and untreated cells. After 1 h incubation, the wells were replaced with 500 μL fresh media. At 24, 48, and 72 h, the cells were incubated in 500 μL media containing 50 μg/mL alamaBlue® for 1 h. Thereafter, 100 μL media in each well was sampled and assayed on a plate reader (Beckman Coulter, DTX-880 Multimode detector, Brea, Calif.) at a wavelength of λex=530 nm and λem=590 nm. The same volume of media containing alamaBlue® was added in empty wells in the same 24-well plate to be used as the baseline absorbance. The percentage of viability at 24, 48, and 72 h was calculated by normalizing to that of untreated cells. As Dox-induced cytotoxicity takes about 48 hours to manifest, acute cytotoxicity (trypan blue assay) was attributed to ultrasound-microbubble interaction. […]

Another series deals with MCA205 sarcoma. Description: In vivo tumor treatment: tumor growth and survival. Also noted: species or system mice. Conditions: for Median survival time ± standard deviation: US Pulse 3 for MB formulations. How it is done:
This example provides in vivo studies were performed using the Pulse 3 US regime. […] Treatments were infused over 15 min via internal jugular indwelling catheter on Days 0, 3, 7, 10.
Murine sarcoma model. The animal protocols were approved by the University of Pittsburgh Institutional Animal Care and Use Committee and conform to the Policy on Human Care and Use of Laboratory Animals. Female mice were used due to their susceptibility to Dox cardiotoxicity. Lipshultz et al., “Assessment of dexrazoxane as a cardioprotectant in doxorubicin-treated children with high-risk acute lymphoblastic leukaemia: long-term follow-up of a prospective, randomised, multicentre trial” Lancet Oncol. […] Eight-week-old female C57BL/6 mice were obtained from Jackson lab and housed in the animal facility of the Division of Laboratory Animal Resources at the University of Pittsburgh.
The pulse was repeated 500 times, with the pulse train repeated every 2.5 s to allow MB reperfusion into the target area. The overall duty cycle was 10%. The spatial peak temporal average intensity was 0.16 W/cm^2. The US treatment was continued for approximately 3-5 minutes after the intravenous MB infusion was completed to achieve complete MB destruction (e.g., ˜12-15 min total sonication time).
Tumor growth was evaluated by high-resolution 3D US imaging of the tumor using automated scanning (Vevo2100, Visualsonics, Ontario, Canada) at 21 MHz with a 0.2-mm step size between cross-sections. Tumor cross-sections were manually outlined and tumor volumes were calculated from 3D reconstructions of the outlined area. This technique can measure subcutaneous tumors with an irregular shape with an accuracy of ±20 mm^3. Tumor growth over time was fit to an exponential curve (y)=X0·e^kt, where X0 represents initial tumor volume, and t stands for time in days. Doubling times (DT) were calculated as DT=(Ln2)/k.
Treatments with various Dox formulations commenced when tumor volume reached 40-90 mm^3. The mice were randomly assigned to 1 of 6 treatment groups.
On the first day of treatment, the tumor bearing mice were anesthetized with 2% isoflurane in oxygen and an indwelling catheter was placed in the internal jugular vein to facilitate multiple intravenous infusions over time. See, FIG. 1B. […] See, FIG. 1B.
Tumor volume and cardiac function were serially evaluated for up to 42 days using ultrasound imaging. Echocardiography was performed every 7 days after the 1st treatment. On day 42, or if tumor volume exceeded 1,600 mm^3 before day 42, the mice were euthanized under deep anesthesia (5% isofluorane). Tumor and heart were harvested, washed with cold saline, then were cryopreserved or fixed with 10% formalin overnight, embedding in paraffin block and sectioning for further histology analysis.

Series [5] concerns left ventricular function. Description: Assessment of cardiac function by serial echocardiography. It is filed as in vivo, mice. How it is done: Two-dimensional short-axis images were obtained using a high-resolution Micro-Ultrasound system (Vevo 2100, VisualSonics Inc.) in B-mode and M-mode from parasternal short-axis view. […] LV mass index was calculated as LV mass/mouse body weight (g) on the day of measurement. […] Tumor volume and cardiac function were serially evaluated for up to 42 days using ultrasound imaging. Echocardiography was performed every 7 days after the 1st treatment. […] Ejection fraction […] and left ventricular (LV) mass index data within each treatment group were compared to that on day 0 (baseline) within the group using a two-tail t-test. The percentage of mice with changes in ejection fraction, fractional shortening and LV mass index, categorized as mild, moderate or severe, was compared between groups using Chi-square test, and differences between two groups were compared using Fisher's exact test. Kaplan-Meier survival curves were compared between groups using the log-rank test for trend.

Another series concerns heart tissue. Description: Cardiac histopathology (H&E) and fibrosis analysis (Sirius red/fast green). Format: in vivo, mice. Conditions: for myocardial fibrosis / collagen deposition: Sirius red/fast green staining. Here is the method: Routine hematoxylin and eosin (H&E) stained heart tissue slides were made for histologic examination. Sirius red/fast green staining was performed on heart tissue sections post-fixed in paraffin blocks. Twenty-three (23) Images were obtained on an Olympus IX81 microscope interfaced with a digital CCD camera (Olympus DP71) and quantitated using ImageJ 1.5 software.

In a further series the test system is caspase-3. Description: Caspase-3 activity assay in heart tissue. It is filed as in vivo, mice. Conditions: heart tissue homogenate. Here is the method:
Heart tissue was washed twice with cold PBS and lysed in lysis buffer (50 mM HEPES, pH 7.4, with 5 Mm CHAPS, and 5 mM DTT). Tissue lysates were centrifuged at 10,000 rcf for 15 min, and the total protein concentration was measured using a BCA assay kit (Thermo Fisher Scientific, MA). Caspase-3 activity assay was performed in triplicate in 96-well plates. For each protease assay, 200 μL assay buffer (100 mM HEPES, pH 7.2, 10% sucrose, 0.1% CHAPS, 1 Mm Na-EDTA, and 2 mM DTT) containing 50 μM Ac-DEVD-AMC (Enzo life, Farmingdale, N.Y.) was incubated with 50 μg lysate protein at 37° C. for 1 h.
Caspase-3 activity was measured by AMC liberation from Ac-DEVD-AMC substrate at 380/460 nm using a plate reader (Beckman Coulter, DTX-880 Multimode detector, Brea, Calif.). Relative fluorescence of substrate control was subtracted as background emission. Free AMC (Enzo life, NY) was used to make the standard curve: […]

Details of series [6]: risk of cardiotoxicity occurrence: dose or concentration left out as unconfirmed. The following applies: cited from earlier work.

Marks after values point to notes of the source that are not given here.

Turning to `C[N+]1=C(/C=C/C=C/C=C2/N(CCCCCC(=O)NCCCCCCN)c3ccc4ccccc4c3C2(C)C)C(C)(C)c2c1ccc1ccccc21.Cl.[Cl-]` [Cy5.5-NH2, Cyanine5.5-amine], in series [1], the “ex vivo Cy5.5 fluorescence in organs” value was “noticeable Cy5.5 fluorescence in the heart and skeletal muscle”. Besides, the water solubility entry in series [2] is listed as “moderate water solubility”. For the same compound, the “acid dissociation constant (pKa)” value in [2] (primary amine group) is given as “higher than 7”.
As to `COc1cccc2c1C(=O)c1c(O)c3c(c(O)c1C2=O)C[C@@](O)(C(=O)CO)C[C@@H]3O[C@H]1C[C@H](N)[C@H](O)[C@H](C)O1` [Dox, Doxorubicin], the cell membrane integrity entry in series [3] was “did not change the cell membrane integrity”. The “cytotoxicity / cell viability” value in series [4] (listed as Free Dox) is “more cytotoxicity than DoxLPX in the absence of US”; in [4] (listed as free Dox), “highest cytotoxicity at 24, 48, and 72 h”. The “Median survival time ± standard deviation” value came out at 28.0 ± 7.5 days with MCA205 sarcoma (5 mg/kg equiv. Dox i.v., 4 treatments) and 28 days in the series with MCA205 sarcoma (5 mg/kg equiv. Dox i.v., 4 treatments, listed as free Dox). For the same compound, in the series with MCA205 sarcoma (as compared to controls), the “prolongation of median survival” value is 14%. The “tumor volume as % of original (baseline) tumor volume” value in the series with MCA205 sarcoma (by Day 17.5) is reported as 610%. Besides, the Tumor doubling time with MCA205 sarcoma (exponential fit of tumor volume, 5 mg/kg equiv. Dox i.v., 4 treatments) is given as 7.1 ± 1.0**^,# Day. The “LVIDs, LVIDd change” value in [5] (Day 14 or Day 21 vs. Day 0) is listed as “Significant increases”. Moreover, in series [5] (Day 21 vs. Day 0), the “mice with severely increased LV mass index” value came to 20.0%. In addition, the “mice with severe reduction in EF” value in [5] (day 21) amounted to 40%. Further, the “mice with severe reduction in FS” value in series [5] (day 21) amounted to 30%. Further, in series [5] (vs. Day 0), the “LV mass index change” value is “significantly increased LV mass index on day 14”. The “LV mass over time” value in series [5] (vs. baseline, up to Day 21) is “significantly greater than baseline by Day 14”. The “ejection fraction (EF) and fractional shortening (FS) over time” value in series [5] (vs. baseline, up to Day 21) was “progressive decline in ejection fraction (EF) and fractional shortening (FS)”. The “myocardial fibrosis / collagen deposition” value was “significantly more areas of patchy myocardial interstitial fibrosis and perivascular fibrosis” in the series with heart tissue; “induced moderate myocardial interstitial and perivascular fibrosis” in the series on heart tissue (listed as free Dox). In addition, the “histological damage to heart tissue” value in the series on heart tissue (hematoxylin/eosin staining, accumulative dosage 20 mg/kg) was “disorganization of myofibrillar arrays (first left panel of Dox group) and focal cytoplasmic vacuolization”. Moreover, the “caspase-3 activity in cardiac tissue” value in the series on caspase-3 is “higher than that in mice treated with DoxLPX+US”. In series [6] (clinically), the “risk of cardiotoxicity occurrence” value is on record as 26%. The “maximal tolerated cumulative dose” value in series [6] (in vivo) is listed as 400-550 mg/m2.
